The values below come from paper PMC8280143, “A novel dephosphorylation targeting chimera selectively promoting tau removal in tauopathies” (Signal Transduction and Targeted Therapy, 2021).

“Also recorded” adds a separate entry of the source.

One data set concerns PP2A-Bα (PPP2R1A). In words: Fluorescence polarization competing assay, PP2A-Bα. The data set is classed as binding, human. As to conditions: 2.5 μM PP2A-Bα, 0.1 μM FITC-labeled DEPTAC; 37 °C, 30 min. How it is done:
Purified human tau and PP2A-Bα (PPP2R1A) were obtained from AtaGenix (Wuhan, China), and concentrated using ultrafiltration tubes (Beyotime). In basic binding assays, tau or PP2A-Bα was aliquoted into serial dilutions with a buffer containing 20 mM Tris-HCl, 150 mM NaCl, and 0.5 mM 1,4-Dithiothreitol (pH 7.4), and incubated with 0.1 μM FITC-labeled DEPTAC, FITC-labeled control peptide and FITC (9:1 vol/vol), respectively, in a black 384-well plates (Corning) under 37 °C for 30 min. In competition binding assays, a mixture of 2.5 μM tau or PP2A-Bα and 0.1 μM FITC-labeled DEPTAC were incubated with increasing amounts of unlabeled-DEPTAC under 37 °C for 30 min. Fluorescence intensity was measured by a Biotek Synergy 2 microplate reader with the wavelengths of 480 nm (60) (Ex)/560 nm (40) (Em). The polarization measurements were corrected for background contributions to the measured intensity by subtracting the parallel and perpendicular intensity readings by the vehicle-only wells from the intensity readings for each data point. Fluorescence polarization (P) was calculated by the formula P = (I║ − I┴) / (I║ + I┴), where I║ was the intensity of emitted light polarized parallel to the excitation light, and I┴ was the intensity of emitted light polarized perpendicular to the excitation light.
For orientation: Polarisation of emitted light reports the rotation of a fluorescent probe.

For a further data set, the system named is neurons. In words: Neuron penetrability in vivo. Further details: species or system mouse. As to conditions: Supplementary Fig. S1a; 10 mM FITC-labeled or unlabeled-DEPTAC, C57BL/6 mice. How it is done: (§1) For 2-month male C57BL/6 mice, 10 mM FITC-labeled or unlabeled-DEPTAC were directly injected through the tail vein or lateral ventricle for the evaluation of BBB-penetrability. For 9-month 3×Tg AD mice or Tau368 (20–30 g body weight), unlabeled-DEPTAC (5 mM, 1 μL for each time) was delivered for once into the lateral ventricle through direct stereotaxic injection, or repeatedly administrated through guiding cannulas (RWD, Shenzhen, China) implanted into the lateral ventricle once every 3 days for a consecutive month to test its dephosphorylation efficiency. Mice were restricted in a custom designed device and stayed awake during drug administration, and sacrificed at 24 h post the single or last DEPTAC administration.

The test system of data set [1] is human tau in HEK293(hTau) cells. The experiment in a line: Tau dephosphorylation and reduction in hTau-expressed HEK293 cells. The class given is cell-based. Conditions: Supplementary Fig. S4; by contrast to neurons. How it is done: HEK293 cells with stable expression of wild-type full-length human tau (term as HEK293(hTau) cells), were cultured in DMEM (Hyclone, SH30022.01) containing 10% fetal bovine serum (Biological Industries, 04–001-1ACS) and […] G418 (Thermo Fisher Scientific, 10,131,027) under 5% CO2, 37 °C.
Cultured cells or hippocampus tissues were collected on ice, and homogenized with RIPA lysis buffer containing 50 mM Tris-HCl, 100 mM NaCl, 1% Triton X-100, 5 mM EDTA, and 1:100 PMSF, and then centrifuged at 12,000 × g for 20 min. The supernatant was collected for the analysis of soluble proteins. In some experiments, the pellets were further incubated with 8% SDS buffer at 37 °C and then ultrasound for 60 times to reach a complete resuspension for the analysis of insoluble tau. Protein concentration was measured through BCA assays (Thermo Fisher). Equal amount of protein from each sample were separated in SDS-PAGE gels, and then transferred onto nitrocellulose or 0.22 μm polyvinylidene fluoride membranes (Merck Millipore). […] Blots were visualized using ECL luminol reagent (P0018FS, Beyotime), and quantified using ImageJ software.

Another data set concerns tau aggregation. In words: Thioflavin T staining of tau aggregation in the DG of Tau368 mice. As to conditions: DEPTAC for a consecutive month after stopping dox; **p < 0.01, n = 4–5 mice. The class given is in vivo, mouse. How it is done: as §1
Free-floating brain sections were washed with Tris-buffered saline (TBS) for 3 × 5 min, and then incubated with 0.3% Thioflavin T (Sigma) dissolved in 50% ethanol at room temperature for 10 min. The sections were then decolorized in 50% ethanol for 3 × 5 min, washed in TBS, and subsequently co-stained with DAPI for 10 min.

The subject of data set [2] is dentate granular cells of Tau368 mice. In words: Sholl analysis of dendrite complexity. The class given is in vivo, mouse. How it is done: as §1
A total volume of 0.3 μL mixture of AAV-CaMKIIα-Cre (5.21E+07) and AAV-EF1α-DIO-mCherry (3.24E+12) (1:1 vol/vol) was stereotaxically injected into the dDG of Tau368 mice 1 month following the beginning of dox or normal drinking water administration. Dox was stopped 1-month post AAVs injection, and DEPTAC were delivered through lateral ventricle for a consecutive month. Behavioral tests were performed after the DEPTAC administration, and mice were killed after behavioral tests. Hippocampal sections of 60 μm were obtained, and fluorescent images were taken by a two-photon laser-scanning confocal microscope (LSM710, Zeiss). The dendrite complexity of granular cells in the dorsal dentate gyrus was evaluated by Sholl analysis using Simple Neurite Tracer plugin and ImageJ (Fiji) software. Dendrite spine density and the averaged area of mossy fiber punctas were evaluated using ImageJ by an experimenter blinded from mice groupings. It should be noted that the fluorescence-labeled mossy fibers assembled densely in the CA3 subset, the main target area of mossy fiber axon terminals, making it difficult to accurately measure the puncta areas (data not shown). Therefore, we chose the hilus of DG subset for the measurement, which we believe should be also valid to indicate the axon plasticity of DG granular cells.

Data set [3] has as its system human tau N-terminal 1–368 fragment (hTau-N368). The experiment in a line: Hippocampal phosphorylated and total tau in dox-treated Tau368 mice. The data set is classed as in vivo, mouse. Conditions: 5 mM, i.c.v.

As for “(1) YQQYQDATADEQG, originates from the porcine β-tubulin 422–434 for recognizing and binding tau proteins.[5],[6] (2) GSGS, a linker for increasing the flexibility of the peptide.[15] (3) KKVAVVRTPPKSP, for recruiting PP2A-Bα,[16] and (4) RRRRRRRR [DEPTAC, DEPhosphorylation TArgeting Chimera; 38 amino acid residues, C185H314N72O56]”, in the data set with PP2A-Bα (PPP2R1A), the “reversal of FITC-DEPTAC/PP2A-Bα polarization by increased amount of unlabeled-DEPTAC” value was “both were reversed”. The “neuron penetrability in vivo” value in the data set on neurons is given as “high neuron penetrability”. Also, the “effectiveness in dephosphorylating and reducing tau in hTau-expressed HEK293 cells” value in data set [1] is “relatively limited effectiveness”. The “thioflavin T (ThT)-stained tau aggregation in the DG” value in the data set on tau aggregation was “ameliorated”. In data set [2] (NW-treated Tau368 mice, n = 3~5 mice, 12~22 neurons), the “dendrite complexity, NW-treated” value was “did not statistically change; also recorded: no statistically significant change”. The “neurite differentiation in control mice” value in data set [2] (control mice without human tau accumulation) was “did not statistically change”. The “dendrite complexity, dox-treated” value in data set [2] (dox-treated Tau368 mice, n = 3~5 mice, 12~22 neurons) was “did not statistically change; also recorded: no statistically significant change”. In data set [3], the “time post injection of tau reduction” value is 12 to 72 h. The hippocampal total tau result in data set [3] (for a consecutive month / for once, 12–72 h post injection, n = 3–4) is “effective in reducing; also recorded: reduced phosphorylated and total tau prominently”.
